Patent US20210332139A1, “MODULATION OF LEUKOCYTE ACTIVITY IN TREATMENT OF NEUROINFLAMMATORY DEGENERATIVE DISEASE” (Leuvas Therapeutics, priority 2013, published 2021)
Several values for one entry are separate records, joined by “and”; a condition that tells them apart may be missing. Equal values may be shown once.

Tests used:
Format in all cases: cell-based
human primary PMNs = assay: Static adhesion of human primary PMNs to ICAM-1 with signaling inhibitors; conditions: 10 μM Aβ, 1 min; listed as Aβ oligo
Protocol: As a model system, human primary PMNs were isolated form healthy donors stimulated to very rapid adhesion to purified human ICAM-1, ligand for the β2 integrins LFA-1 and Maci. fMLP (the classical chemoattractant) was the positive control. […] PMNs were treated for 30 min. with different concentrations of inhibitors followed by stimulation for 1 min with 50 nM fMLP or with 10 μM Aβ. The number of adherent cells was quantified by computer-assisted evaluation. Statistical analysis was SD.

human neutrophils = assay: Isoluminol chemiluminescence ROS assay, human neutrophils; conditions: human neutrophils on fibrinogen, mean+/−SD
Protocol: One of the mechanisms of neuronal damage by beta-amyloid in Alzheimer's disease is the generation of reactive oxygen species (ROS). We determined whether Aβ1-42 oligomers induce ROS production in neutrophils by using a chemiluminescence assay.
Isoluminol-based chemiluminescence assays were performed in HGCa in the presence of horseradish peroxidase (HRP) and isoluminol (both from Sigma-Aldrich) in a temperature-controlled Multilabel Count Victor X5 (Perkin Elmer). Assays were run in dark 96 well plates precoated with 250 μg/ml human fibrinogen in HGCa containing (final concentration): 100 μM isoluminol and 8 U/ml HRP. After addition of 1×10^5 human neutrophils or 7.5×10^5 mouse neutrophils, plates were left at 37° C. for 5-10 min and the reaction started by addition of the stimulus. Light emission was recorded every minute.
We used the chemotactic peptide fMLP as positive control. […] Data are mean+/−SD for three independent experiments.

LFA-1 = LFA-1 affinity state in human neutrophils (conformer-specific antibodies, cytofluorimetry); conditions: 20 μM, 10 s, mean fluorescence intensity, ctrl = 1
Text: Neutrophil arrest is rapidly triggered by chemokines or other chemoattractants and is mediated by the binding of LFA-1 integrin to its vascular ligand ICAM-1. Ligation of specific heterotrimeric GPCRs by chemokines induces integrins to undergo a dramatic transition from a bent low-affinity conformation to extended intermediate- and high-affinity conformations, which leads to opening of the ligand-binding pocket. We hypothesized that Aβ may trigger intermediate and/or high affinity state of LFA-1 integrin and studied the effect of Aβ1-42 oligomers on human LFA-1 affinity using KIM127 and 327A conformer-specific antibodies for intermediate- and high-affinity state respectively.
The cells were stimulated for 10 s with 0.5 μmol/L of CXCL12, 0.1 μM fMLP, 20 μM Aβ1-42, or 20 μM Aβ42-1 under stirring at 37° C. After rapid washing, cells were stained with FITC-conjugated secondary polyclonal antibody and analyzed by cytofluorimetric quantification. Data are mean fluorescence intensity +/−SD from three independent experiments.

Substance: Abeta 1-42: soluble oligomeric amyloid-beta 1-42 peptide used as stimulus
- Adherent hPMNs to ICAM-1, Aβ oligo, Mean, Control (no inhibitor) (human primary PMNs): 464.0 and 500.8 and 464.5 and 455.0 and 475.5 and 470.7
- ROS generation (chemiluminescence) (human neutrophils; 1 min): 558 ± 112
- ROS generation (chemiluminescence) (human neutrophils; 2 min): 540 ± 106
- ROS generation (chemiluminescence) (human neutrophils; 3 min): 358 ± 132
- ROS generation (chemiluminescence) (human neutrophils; 4 min): 235 ± 61
- ROS generation (chemiluminescence) (human neutrophils; 5 min): 199 ± 76
- 327A (high-affinity state of LFA-1) (LFA-1): 3.29 ± 0.44
- KIM127 (intermediate-affinity state of LFA-1) (LFA-1): 2.54 ± 0.12
